Data as given in article PMC3038857, “Using Nuclear Receptor Activity to Stratify Hepatocarcinogens” (PLoS ONE, 2011).
Where two headings read alike, the source gives them in different places.

Tests used:
Rat Liver [1] = conditions: ref ToxRefDB, cited from earlier work
Rat Liver [2] = conditions: ref ToxRefDB, cited from earlier work; remark: listed apart in the source
Rat Liver [3] = conditions: ref ToxRefDB, cited from earlier work; remark: listed apart in the source
Mouse Liver = conditions: liver, ref ToxRefDB, cited from earlier work
PXR (NR1I2) = biological target: T1, PXR (NR1I2) (Homo sapiens, UniProt O75469); test: ATG_PXRE_CIS: Factorial reporter gene assay (HepG2); format: cell-based; set-up: endogenous in cells; host or cells: HepG2
T1 sequence (O75469 1-434): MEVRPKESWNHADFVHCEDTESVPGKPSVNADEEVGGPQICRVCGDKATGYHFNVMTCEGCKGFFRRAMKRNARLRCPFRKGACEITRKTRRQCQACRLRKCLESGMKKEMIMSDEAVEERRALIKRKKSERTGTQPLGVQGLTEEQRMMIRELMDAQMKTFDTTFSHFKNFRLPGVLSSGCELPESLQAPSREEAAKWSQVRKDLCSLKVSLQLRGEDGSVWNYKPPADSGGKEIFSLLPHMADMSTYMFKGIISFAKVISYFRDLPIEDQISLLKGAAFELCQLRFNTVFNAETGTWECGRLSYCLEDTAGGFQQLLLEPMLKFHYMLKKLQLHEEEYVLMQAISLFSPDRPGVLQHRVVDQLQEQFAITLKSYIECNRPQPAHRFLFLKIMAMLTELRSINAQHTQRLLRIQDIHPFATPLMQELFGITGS
Procedure: A multiple reporter transcription unit (MRTU) library consisting of 48 transcription factor binding sites was transfected into the HepG2 human liver hepatoma cell line. In addition to the cis-acting reporter genes (CIS), a modification of the approach was used to generate a trans-system (TRANS) with a mammalian one-hybrid assay consisting of an additional 25 MRTU library reporting the activity of nuclear receptor super-family members. […] These assays were performed by Attagene Inc. (Morrisville NC) under contract to EPA.
In addition to the cis-acting reporter genes (CIS), a modification of the approach was used to generate a trans-system (TRANS) with a mammalian one-hybrid assay consisting of an additional 25 MRTU library reporting the activity of nuclear receptor super-family members. […] Chemicals were then tested in the CIS and TRANS assays at seven concentrations starting at the MTC and followed by three-fold serial dilutions. These assays were performed by Attagene Inc. (Morrisville NC) under contract to EPA. Detailed description of the methods, data and analysis methods for this dataset will be presented in a separate publication.

[4] = rat chronic study, liver, any lesion, coded 6 / 0, code not explained in the table
[5] = rat chronic study, liver, preneoplastic lesion, coded 6 / 0, code not explained in the table
[6] = rat chronic study, liver, neoplastic lesion, coded 6 / 0, code not explained in the table
[7] = mouse chronic study, any lesion, coded 6 / Inf, code not explained in the table
[8] = rat chronic study, liver, coded 6 / 0, code not explained in table
[9] = mouse chronic study, coded 6 / Inf, code not explained in table

| SMILES | CHR_Rat_Liver_1_AnyLesion (Rat Liver [1]; [4]) | CHR_Rat_Liver_2_PreneoplasticLesion (Rat Liver [2]; [5]) | CHR_Rat_Liver_3_NeoplasticLesion (Rat Liver [3]; [6]) | CHR_Rat_Liver_1_AnyLesion (Rat Liver [1]; [8]) | CHR_Rat_Liver_2_PreneoplasticLesion (Rat Liver [2]; [8]) | CHR_Rat_Liver_3_NeoplasticLesion (Rat Liver [3]; [8]) | further results |
| --- | --- | --- | --- | --- | --- | --- | --- |
| O=C(O)COc1ccc(Cl)cc1Cl [Dataset S3 row 2] | 6 | 0 | 0 | – | – | – | – |
| O=C(O)CCCOc1ccc(Cl)cc1Cl [Dataset S3 row 3] | 6 | 0 | 0 | – | – | – | CHR_Mouse_Liver_1_AnyLesion (Mouse Liver; [7]): 6 |
| C/C(=N\C#N)N(C)Cc1ccc(Cl)nc1 [Dataset S3 row 11] | 6 | 0 | 0 | – | – | – | CHR_Mouse_Liver_1_AnyLesion (Mouse Liver; [7]): 6 |
| CCOCN(C(=O)CCl)c1c(C)cccc1CC [Dataset S3 row 12] | 6 | 6 | 6 | – | – | – | – |
| CSC(=O)c1cccc2nnsc12 [Dataset S3 row 13] | 6 | 0 | 0 | – | – | – | CHR_Mouse_Liver_1_AnyLesion (Mouse Liver; [7]): 6 |
| CCc1cccc(CC)c1N(COC)C(=O)CCl [Dataset S3 row 15] | 6 | 0 | 0 | – | – | – | – |
| CNC(=O)ON=CC(C)(C)SC [Dataset S3 row 16] | 0 | 0 | 0 | – | – | – | – |
| CCNc1nc(NC(C)C)nc(SC)n1 [Dataset S3 row 17] | 6 | 6 | 6 | – | – | – | – |
| Clc1nc(Cl)nc(Nc2ccccc2Cl)n1 [Dataset S3 row 19] | 0 | 0 | 0 | – | – | – | – |
| COC(=O)NS(=O)(=O)c1ccc(N)cc1 [Dataset S3 row 20] | 0 | 0 | 0 | – | – | – | CHR_Mouse_Liver_1_AnyLesion (Mouse Liver; [7]): 6 |
| CCNc1nc(Cl)nc(NC(C)C)n1 [Dataset S3 row 21] | 0 | 0 | 0 | – | – | – | – |
| COC=C(C(=O)OC)c1ccccc1Oc1cc(Oc2ccccc2C#N)ncn1 [Dataset S3 row 24] | 6 | 6 | 0 | – | – | – | – |
| CNC(=O)Oc1cccc2c1OC(C)(C)O2 [Dataset S3 row 25] | 0 | 0 | 0 | – | – | – | – |
| FC(F)C(F)(F)OCC(Cn1cncn1)c1ccc(Cl)cc1Cl (stereo not drawn) [chemical 292] | – | – | – | 6 | 6 | 0 | – |
| c1ccc2[nH]c(-c3cscn3)nc2c1 [chemical 294] | – | – | – | 6 | 0 | 0 | – |
| N#C/N=C1\SCCN1Cc1ccc(Cl)nc1 [chemical 295] | – | – | – | 6 | 0 | 0 | CHR_Mouse_Liver_1_AnyLesion (Mouse Liver; [9]): 6 |
| CN(C)C(=S)SSC(=S)N(C)C [chemical 302] | – | – | – | 6 | 6 | 0 | – |

| SMILES | CHR_Rat_Liver_1_AnyLesion (Rat Liver [1]; [4]) | CHR_Rat_Liver_2_PreneoplasticLesion (Rat Liver [2]; [5]) | CHR_Rat_Liver_3_NeoplasticLesion (Rat Liver [3]; [6]) | CHR_Rat_Liver_1_AnyLesion (Rat Liver [1]; [8]) | CHR_Rat_Liver_2_PreneoplasticLesion (Rat Liver [2]; [8]) | CHR_Rat_Liver_3_NeoplasticLesion (Rat Liver [3]; [8]) | further results |
| --- | --- | --- | --- | --- | --- | --- | --- |
| CCON=C(CC)C1=C(O)CC(c2c(C)cc(C)cc2C)CC1=O (stereo not drawn) [chemical 303] | – | – | – | 6 | 6 | 0 | – |
| COC(=O)c1ccccc1S(=O)(=O)NC(=O)N(C)c1nc(C)nc(OC)n1 [chemical 308] | – | – | – | 0 | 0 | 0 | – |
| Oc1cc(Cl)ccc1Oc1ccc(Cl)cc1Cl [chemical 312] | – | – | – | 6 | 0 | 0 | – |
| CO/N=C(/C(=O)OC)c1ccccc1CON=C(C)c1cccc(C(F)(F)F)c1 [chemical 313] | – | – | – | 0 | 0 | 0 | CHR_Mouse_Liver_1_AnyLesion (Mouse Liver; [9]): 6 |
| COc1cc(OC)nc(NC(=O)[N-]S(=O)(=O)c2ncccc2OCC(F)(F)F)n1.[Na+] [chemical 314] | – | – | – | 0 | 0 | 0 | – |
| CCCN(CCC)c1c([N+](=O)[O-])cc(C(F)(F)F)cc1[N+](=O)[O-] [chemical 316] | – | – | – | 0 | 0 | 0 | – |
| CC1(C)CCC(=Cc2ccc(Cl)cc2)C1(O)Cn1cncn1 (stereo not drawn) [chemical 318] | – | – | – | 6 | 0 | 0 | CHR_Mouse_Liver_1_AnyLesion (Mouse Liver; [9]): 6 |
| CCC(C)(NC(=O)c1cc(Cl)c(C)c(Cl)c1)C(=O)CCl (stereo not drawn) [chemical 320] | – | – | – | 0 | 0 | 0 | – |
| CNC(=O)ON=C(SC)C(=O)N(C)C [r231] | – | – | – | – | – | – | CHR_Rat_Liver_1_AnyLesion (Rat Liver [1]; rat, chronic study): 0; CHR_Rat_Liver_2_PreneoplasticLesion (Rat Liver [2]; rat, chronic study): 0; CHR_Rat_Liver_3_NeoplasticLesion (Rat Liver [3]; rat, chronic study): 0; ATG_PXRE_CIS (PXR (NR1I2); HepG2): 4.481 |
| CCCOC(=O)NCCCN(C)C.Cl [r257] | – | – | – | – | – | – | CHR_Rat_Liver_1_AnyLesion (Rat Liver [1]; rat, chronic study): 0; CHR_Rat_Liver_2_PreneoplasticLesion (Rat Liver [2]; rat, chronic study): 0; CHR_Rat_Liver_3_NeoplasticLesion (Rat Liver [3]; rat, chronic study): 0 |
| CCC(=O)Nc1ccc(Cl)c(Cl)c1 [r258] | – | – | – | – | – | – | CHR_Rat_Liver_1_AnyLesion (Rat Liver [1]; rat, chronic study): 6; CHR_Rat_Liver_2_PreneoplasticLesion (Rat Liver [2]; rat, chronic study): 6; CHR_Rat_Liver_3_NeoplasticLesion (Rat Liver [3]; rat, chronic study): 0; ATG_PXRE_CIS (PXR (NR1I2); HepG2): 4.337 |
| O=C(O)c1c(Cl)ccc2cc(Cl)cnc12 [r276] | – | – | – | – | – | – | CHR_Rat_Liver_1_AnyLesion (Rat Liver [1]; chronic study, rat liver): 0; CHR_Rat_Liver_2_PreneoplasticLesion (Rat Liver [2]; chronic study, rat liver): 0; CHR_Rat_Liver_3_NeoplasticLesion (Rat Liver [3]; chronic study, rat liver): 0 |
| CCS(=O)(=O)c1cccnc1S(=O)(=O)NC(=O)Nc1nc(OC)cc(OC)n1 [r281] | – | – | – | – | – | – | CHR_Rat_Liver_1_AnyLesion (Rat Liver [1]; chronic study, rat liver): 6; CHR_Rat_Liver_2_PreneoplasticLesion (Rat Liver [2]; chronic study, rat liver): 6; CHR_Rat_Liver_3_NeoplasticLesion (Rat Liver [3]; chronic study, rat liver): 0 |
| CNC(=O)N(C)c1nnc(C(C)(C)C)s1 [r293] | – | – | – | – | – | – | ATG_PXRE_CIS (PXR (NR1I2); HepG2 reporter): 4.357 |
| COC(=O)c1ccc(CNS(C)(=O)=O)cc1S(=O)(=O)NC(=O)Nc1nc(OC)cc(OC)n1 [row 194] | – | – | – | – | – | – | CHR_Mouse_Liver_1_AnyLesion (Mouse Liver; chronic mouse study): 6; CHR_Rat_Liver_1_AnyLesion (Rat Liver [1]; chronic rat study, liver): 0; CHR_Rat_Liver_2_PreneoplasticLesion (Rat Liver [2]; chronic rat study, liver): 0; CHR_Rat_Liver_3_NeoplasticLesion (Rat Liver [3]; chronic rat study, liver): 0 |
| CNC(=O)ON=C(C)SC [row 200] | – | – | – | – | – | – | CHR_Rat_Liver_1_AnyLesion (Rat Liver [1]; chronic rat study, liver): 0; CHR_Rat_Liver_2_PreneoplasticLesion (Rat Liver [2]; chronic rat study, liver): 0; CHR_Rat_Liver_3_NeoplasticLesion (Rat Liver [3]; chronic rat study, liver): 0 |
| COCCO [row 203] | – | – | – | – | – | – | ATG_PXRE_CIS (PXR (NR1I2); HepG2): 4.602 |
